Laboratory results taken from patent US20250179061A1 (SIRONAX LTD., priority 2022, published 2025).
Read-outs that look alike come from different tables or passages of the source.

Tested on: HT-29 cells
Test: HT-29 necroptosis cell viability assay (TNF-α/SMAC mimetic/zVAD-FMK, CellTiter-Glo)
Format: cell-based
Conditions: Homo sapiens, read-out: Activity
Experimental: Compounds 1-702 of the disclosure were tested for biological activity, following the experimental procedures described below.
• Cell line: HT-29 (ATCC® HTB-38™) • Culture medium: McCOY's 5A, Gibco, Cat No. 16600-082 • FBS, Gibco, Cat No. 10099-141 C • Trypsin: Gibco, Cat No. 25200-056 • DMSO: Sigma, Cat No. 67-68-5, 1L • Assay plate: Corning #3903 • Compound dilution plate: Corning #3357 • Inducers: TNFα, GenScript, Cat No. Z01001-50, • SmacM, Cat. No., HY-15989, MedChemExpress (MCE) • Z_VAD FMK, TargetMol, T6013 • Cell Titer-Glo® Luminescent Cell Viability Assay Kit: Promega, Cat No. G7573 • EnVision: PerkinElmer, 2105-0010
• 1. HT-29 cells were checked every day to make sure that they were healthy and growing as expected. They were subjected to sub-culturing when they were approximately 80% confluent. • 2. The culture medium, McCOY's 5A medium (Gibco, Cat No. 16600-082) with 10% fetal bovine serum or FBS (Gibco, Cat No. 10099-141C), was pre-warmed in a 37° C. water bath for at least 30 min. • 3. When the cells had reached a desired level of confluency of 80% in a T75 flask, the medium was aspirated, and the cells were washed with warm phosphate buffered saline or PBS two times. • 4. 2-3 ml fresh warm trypsin (Gibco, Cat No. 25200-056) solution was added to the washed cells. The flask with the cells was transferred to a 37° C. incubator. • 5. After 5 minutes, the side of the flask was tapped, and the flask was examined under a microscope for detachment of the cells to the flask. If necessary, the cells were kept in the incubator for an additional 5-10 minutes, with occasional tapping, until lifting was complete. • 6. The trypsin reaction was neutralized by transferring 6-9 ml cell culture medium to sterile 15 ml conical tubes, and by centrifuging the cell culture at 300×g for 7 minutes to pellet the cells (supernatant decanted). • 7. The cells were resuspended in fresh cell culture medium and the cell counting was performed using a hemocytometer. • 8. 100 μl of the resuspended cell culture medium containing ˜5,000 cells were transferred into each well of the sterile 96-well cell culture plate (Corning 3903) and cultured overnight at 37° C. with 5% CO2.
• 1. All test compounds were dissolved in DMSO (Dimethyl sulfoxide) to create a 20 mM stock. • 2. 3 μl of 20 mM stock of each compound was mixed with 27 μl DMSO, and the compound solution was further diluted at a titration ratio of 1:3 (20 μl compound solution+40 μl DMSO) till the 10 points end. • 3. All culture medium was removed from assay plates filled with HT-29 cell cultures. The cells were then washed with 1 PBS, and resuspsended in fresh, FBS-free McCOY's 5A medium containing a cocktail of TNF-α (10 ng/ml), a SMAC mimetic compound (6 μM) and Z-VAD-fluoromethylketone or zVAD-FMK (10 μM) to stimulate the HT-29 cells to increase RIP1 kinase levels and necroptosis. • 4. 0.5 μL of the diluted compound solution was added to the corresponding 96-well assay plates. • 5. The assay plates were incubated for 20 hours at 37° C. with 5% CO2.
• 1. The CellTiter-Glo® Luminescent Cell Viability Assay was employed to detect the ATP levels of viable HT-29 cells. • 2. The CellTiter-Glo® buffer and the lyophilized substrate were equilibrated to room temperature prior to use. • 3. The CellTiter-Glo® substrate was resuspended with CellTiter-Glo® buffer, then mixed by gently vortexing to obtain a homogeneous solution. • 4. 20 μl of the enzyme/substrate mixture was transferred by multi-channel pipetting into 96-well assay plates. • 5. The assay plates were placed on an orbital shaker and the contents were shaken for 3 minutes to induce cell lysis. • 6. The assay plates were incubated at room temperature for 10 minutes to stabilize the luminescent signal. • 7. The luminescence signals were read and recorded with EnVision. • 8. The geometric mean IC50 values were calculated from 10 points response dose with duplicates. […]

[1] = HT-29 cells stimulated with TNF-α (10 ng/ml), SMAC mimetic (6 μM) and zVAD-FMK (10 μM), 20 hours, CellTiter-Glo ATP luminescence, geometric mean IC50 from 10 points
[2] = HT-29, HT-29 necroptosis cell viability, IC50 class symbols
[3] = HT-29, HT-29 necroptosis cell viability assay, class symbols for IC50

| SMILES | IC50 [2] [nM] | IC50 [3] [nM] | further results |
| --- | --- | --- | --- |
| Cc1nc(N2CCOC2=O)sc1Oc1ccc(-n2ncn(Cc3c(F)cccc3F)c2=O)cc1F [Example 56, 3-(5-(4-(4-(2,6-difluorobenzyl)-5-oxo-4,5-dihydro-1H-1,2,4-triazol-1-yl)-2-fluorophenoxy)-4-methylthiazol-2-yl)oxazolidin-2-one] | – | – | IC50 [1]: < 100 nM |
| CCOC(=O)c1noc(Oc2ccc(-n3ncn(Cc4c(F)cccc4F)c3=O)cc2F)c1C [Example 477, ethyl 5-(4-(4-(2,6-difluorobenzyl)-5-oxo-4,5-dihydro-1H-1,2,4-triazol-1-yl)-2-fluorophenoxy)-4-methylisoxazole-3-carboxylate] | 100 to 1000 | – | – |
| Cc1cccnc1Cn1cnn(-c2ccc(Oc3sc(C(C)(C)O)nc3C)c(F)c2)c1=O [Example 464, 2-(3-fluoro-4-((2-(2-hydroxypropan-2-yl)-4-methylthiazol-5-yl)oxy)phenyl)-4-((3-methylpyridin-2-yl)methyl)-2,4-dihydro-3H-1,2,4-triazol-3-one] | 100 to 1000 | – | – |
| Cc1nc(C(C)(C)O)sc1Oc1ccc(-n2ncn(Cc3ncccc3Cl)c2=O)cc1F [Example 466, 4-((3-chloropyridin-2-yl)methyl)-2-(3-fluoro-4-((2-(2-hydroxypropan-2-yl)-4-methylthiazol-5-yl)oxy)phenyl)-2,4-dihydro-3H-1,2,4-triazol-3-one] | < 100 | – | – |
| O=c1c(Br)cccn1Cc1ccc(-n2ncn(Cc3c(F)cccc3F)c2=O)cc1 [Example 211, 3-bromo-1-(4-(4-(2,6-difluorobenzyl)-5-oxo-4,5-dihydro-1H-1,2,4-triazol-1-yl)benzyl)pyridin-2(1H)-one] | – | 100 to 1000 | – |
| Cc1nc(C2=CCNC2)sc1Oc1ccc(-n2ncn(Cc3c(F)cccc3F)c2=O)cc1 [Example 542, 4-(2,6-difluorobenzyl)-2-(4-((2-(2,5-dihydro-1H-pyrrol-3-yl)-4-methylthiazol-5-yl)oxy)phenyl)-2,4-dihydro-3H-1,2,4-triazol-3-one] | – | < 100 | – |
| O=c1n(-c2ccc(Oc3ccncc3)cc2)nc(Cl)n1Cc1ccccc1 [Example 403, 4-benzyl-5-chloro-2-(4-(pyridin-4-yloxy)phenyl)-2,4-dihydro-3H-1,2,4-triazol-3-one] | 100 to 1000 | – | – |
| O=c1n(Cc2c(F)cccc2F)cnn1-c1ccc(Oc2ccnc(N3CC4(CCCCO4)C3)c2)cc1 [Example 334, 2-(4-((2-(5-oxa-2-azaspiro[3.5]nonan-2-yl)pyridin-4-yl)oxy)phenyl)-4-(2,6-difluorobenzyl)-2,4-dihydro-3H-1,2,4-triazol-3-one] | < 100 | – | – |
| C[C@@H]1CN(c2cc(Oc3ccc(-n4ncn(Cc5c(F)cccc5F)c4=O)cc3)ccn2)C[C@H](C)O1 [Example 382, 4-(2,6-difluorobenzyl)-2-(4-((2-((2R,6S)-2,6-dimethylmorpholino)pyridin-4-yl)oxy)phenyl)-2,4-dihydro-3H-1,2,4-triazol-3-one] | 100 to 1000 | – | – |
| Cc1nc(N2C[C@@H](O)[C@@H]2C)sc1Oc1ccc(-n2ncn(Cc3c(F)cccc3F)c2=O)cc1 [Example 50, 4-(2,6-difluorobenzyl)-2-(4-((2-((2S,3R)-3-hydroxy-2-methylazetidin-1-yl)-4-methylthiazol-5-yl)oxy)phenyl)-2,4-dihydro-3H-1,2,4-triazol-3-one] | – | – | IC50 [1]: < 100 nM |
| N#Cc1cc(Oc2ccc(-n3ncn(Cc4c(F)cccc4F)c3=O)cc2F)c(F)cn1 [Example 402, 4-(4-(4-(2,6-difluorobenzyl)-5-oxo-4,5-dihydro-1H-1,2,4-triazol-1-yl)-2-fluorophenoxy)-5-fluoropicolinonitrile] | < 100 | – | – |
| Cc1ncc(C#N)cc1Oc1ccc(-n2ncn(Cc3c(F)cccc3F)c2=O)cc1 [Example 518, 5-(4-(4-(2,6-difluorobenzyl)-5-oxo-4,5-dihydro-1H-1,2,4-triazol-1-yl)phenoxy)-6-methylnicotinonitrile] | – | 1000 to 10000 | – |
| Cc1nn(-c2ccc(S(=O)(=O)N3CCN(C4CCCOC4)CC3)cc2)c(=O)n1Cc1ccccc1 (stereo not shown) [Example 626, 4-benzyl-5-methyl-2-(4-((4-(tetrahydro-2H-pyran-3-yl)piperazin-1-yl)sulfonyl)phenyl)-2,4-dihydro-3H-1,2,4-triazol-3-one] | – | 1000 to 10000 | – |
| Cc1nc(N2CC[C@@H]2CN)sc1Oc1ccc(-n2ncn(Cc3c(F)cccc3F)c2=O)cc1 [Example 70, (R)-2-(4-((2-(2-(aminomethyl)azetidin-1-yl)-4-methylthiazol-5-yl)oxy)phenyl)-4-(2,6-difluorobenzyl)-2,4-dihydro-3H-1,2,4-triazol-3-one] | – | – | IC50 [1]: < 100 nM |
| Cc1nc(C(N)=O)sc1Oc1ccc(-n2ncn(Cc3c(F)cccc3F)c2=O)cc1 [Example 560, 5-(4-(4-(2,6-difluorobenzyl)-5-oxo-4,5-dihydro-1H-1,2,4-triazol-1-yl)phenoxy)-4-methylthiazole-2-carboxamide] | – | < 100 | – |
| Cc1n[nH]c(C)c1Oc1ccc(-n2ncn(Cc3c(F)cccc3F)c2=O)cc1F [Example 178, 4-(2,6-difluorobenzyl)-2-(4-((3,5-dimethyl-1H-pyrazol-4-yl)oxy)-3-fluorophenyl)-2,4-dihydro-3H-1,2,4-triazol-3-one] | – | < 100 | – |
| CC1(C#N)CCN(c2nccc(Oc3ccc(-n4ncn(Cc5c(F)cccc5F)c4=O)cc3)c2F)C1 (stereo not shown) [Example 356, 1-(4-(4-(4-(2,6-difluorobenzyl)-5-oxo-4,5-dihydro-1H-1,2,4-triazol-1-yl)phenoxy)-3-fluoropyridin-2-yl)-3-methylpyrrolidine-3-carbonitrile] | < 100 | – | – |
| CC(C)(C)OC(=O)N1CC2(CCN2c2cc(Oc3ccc(-n4ncn(Cc5c(F)cccc5F)c4=O)cc3)ccn2)C1 [Example 499, tert-butyl 1-(4-(4-(4-(2,6-difluorobenzyl)-5-oxo-4,5-dihydro-1H-1,2,4-triazol-1-yl)phenoxy)pyridin-2-yl)-1,6-diazaspiro[3.3]heptane-6-carboxylate] | – | 100 to 1000 | – |
| COC1(C#N)CN(c2cc(Oc3ccc(-n4ncn(Cc5c(F)cccc5F)c4=O)cc3F)c(Cl)cn2)C1 [Example 231, 1-(5-chloro-4-(4-(4-(2,6-difluorobenzyl)-5-oxo-4,5-dihydro-1H-1,2,4-triazol-1-yl)-2-fluorophenoxy)pyridin-2-yl)-3-methoxyazetidine-3-carbonitrile] | < 100 | – | – |
| CCOC1CN(c2cc(S(=O)(=O)c3ccc(-n4ncn(Cc5c(F)cccc5F)c4=O)cc3)ccn2)C1 [Example 492, 4-(2,6-difluorobenzyl)-2-(4-((2-(3-ethoxyazetidin-1-yl)pyridin-4-yl)sulfonyl)phenyl)-2,4-dihydro-3H-1,2,4-triazol-3-one] | – | < 100 | – |
| Cc1nc(NC(=O)OC(C)(C)C)sc1Sc1ccc(-n2ncn(Cc3ccccc3)c2=O)cc1 [Example 612, tert-butyl (5-((4-(4-benzyl-5-oxo-4,5-dihydro-1H-1,2,4-triazol-1-yl)phenyl)thio)-4-methylthiazol-2-yl)carbamate] | – | < 100 | – |
| Cc1cnc(N2CC(C)(C#N)C2)nc1Oc1ccc(-n2ncn(Cc3c(F)cccc3F)c2=O)cc1F [Example 225, 1-[4-(4-{4-[(2,6-difluorophenyl)methyl]-5-oxo-1,2,4-triazol-1-yl}-2-fluorophenoxy)-5-methylpyrimidin-2-yl]-3-methylazetidine-3-carbonitrile] | 100 to 1000 | – | – |
